In patent US11851449B2, “Heterocyclic amide compounds having an RORvt inhibitory action” (TAKEDA PHARMACEUTICAL COMPANY LIMITED, priority 2013, dated 2023):

How the values were obtained:
RORγt [1] = target: T1, RORγt (Homo sapiens, UniProt P51449); assay: Jurkat reporter test (human IL-17 ROR response element luciferase reporter); assay type: cell-based; conditions: Jurkat, read-out: luminescence level inhibitory rate (%) at test compound 3 μM
T1 sequence (P51449 1-497 isoform P51449-2): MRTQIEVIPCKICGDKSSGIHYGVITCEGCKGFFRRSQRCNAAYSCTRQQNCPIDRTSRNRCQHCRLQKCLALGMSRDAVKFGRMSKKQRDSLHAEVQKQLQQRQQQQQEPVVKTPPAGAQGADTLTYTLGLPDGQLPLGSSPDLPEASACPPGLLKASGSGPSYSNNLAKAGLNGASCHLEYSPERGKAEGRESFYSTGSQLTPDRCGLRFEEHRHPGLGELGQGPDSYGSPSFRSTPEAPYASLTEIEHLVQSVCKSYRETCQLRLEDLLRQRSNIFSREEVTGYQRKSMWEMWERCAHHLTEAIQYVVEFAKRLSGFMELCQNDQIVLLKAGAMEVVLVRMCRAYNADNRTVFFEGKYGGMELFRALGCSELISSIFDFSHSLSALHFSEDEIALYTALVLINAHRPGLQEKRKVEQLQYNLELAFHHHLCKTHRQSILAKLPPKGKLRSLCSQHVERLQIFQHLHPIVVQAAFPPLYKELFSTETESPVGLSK
Method: The Jurkat cells used for the reporter test were cultured in a culture medium (RPMI (Invitrogen), 10% FCS (AusGeneX), 100 U/mL penicillin, 100 μg/mL streptomycin). On the day of the test, 4×10^7 cells were recovered by a centrifugal operation (1000 rpm, 5 min.) and suspended in PBS (phosphate buffered saline) (Invitrogen). Thereafter, the cells were recovered again by a centrifugal operation, and suspended in 2 mL of R buffer (NEON transfection kit, Invitrogen). […] Gene transfer was performed by Electroporation apparatus (NEON, Invitrogen) under the conditions of pulse voltage 1350 V, interval 10 milliseconds, number of times 3. The cells after gene transfer were suspended in 40 mL of a reaction medium (RPMI, 10% Lipid reduced FCS (HyClone), 10 mM HEPES (pH 7.5), 100 U/mL penicillin, 100 μg/mL streptomycin, 5 μM lovastatin), and plated in a 96 well plate by 90 μL. A test compound diluted with the reaction medium was added by 10 μL, and the cells were cultured overnight in an incubator. Bright-Glo (Promega) was added by 100 μL, and the mixture was stirred at room temperature for 10 min, and the luminescence level was measured by Envision (PerkinElmer).

RORγt [2] = target: T1, RORγt; assay: Cofactor recruitment test (Alpha Screen, biotinylated SRC-1 peptide); assay type: biochemical; conditions: read-out: signal value inhibitory rate (%) at test compound 1 μM
Method: Cofactor Recruitment Test
Cofactor recruitment test was performed by Alpha Screen (Histidine Detection Kit, PerkinElmer) method. First, a test compound was diluted with an assay buffer (50 mM Tris-HCl (pH 7.5), 50 mM KCl, 1 mM DTT, 0.1% BSA) and added to a 384 well plate by 5 μL. […] The mixture was stood in a dark place for 1 hr, and the signal value was measured by Envision (PerkinElmer).

RORγt [3] = target: T1, RORγt; assay: RORγt binding test (TR-FRET, fluorescent-labeled cholesterol); conditions: read-out: binding inhibitory rate (%) of fluorescent-labeled cholesterol to RORγt at test compound 1 μM
Method: The binding activity of the test compound to RORγt was measured by a time resolved fluorescence resonance energy transfer method (TR-FRET) utilizing histidine-tagged RORγt, fluorescent-labeled cholesterol (BODIPY-cholesterol, AVIVA), and terbium-labeled anti-histidine tag antibody (Invitrogen). First, a test compound diluted with an assay buffer (20 mM Tris-HCl (pH 7.5), 100 mM NaCl, 1 mM DTT, 0.1% BSA) was added to a 384 well plate by 3 μL. Then, RORγt diluted with an assay buffer to 240 nM was added by 3 μL, after which fluorescent-labeled cholesterol diluted with the assay buffer to 12 μM was added by 3 μL, and the mixture was stood at room temperature for 20 min. Thereafter, a terbium-labeled anti-histidine tag antibody diluted with the assay buffer to 8 nM was added by 3 μL. The mixture was stood at room temperature for 20 min, and fluorescence intensity (excitation wavelength 320 nm, fluorescence wavelength 520 nm, delay time 100 microseconds) was measured by Envision (PerkinElmer).

SMILES | inhibition at 3 µM (RORγt [1]) [%] | inhibition at 1 µM (RORγt [2]) [%] | inhibition at 1 µM (RORγt [3]) [%]
COc1ccc(C(NC(=O)N2CC(O)C2)C(=O)Nc2cc(F)c([Si](C)(C)C)c(F)c2)cc1 (stereo not drawn) [Example 41, N-(2-((3,5-difluoro-4-(trimethylsilyl)phenyl)amino)-1-(4-methoxyphenyl)-2-oxoethyl)-3-hydroxyazetidine-1-carboxamide] | 100 | 94.4 | 101
COc1ccc(C(NC(=O)C2CNC(=O)C2)C(=O)Nc2cc(F)c([Si](C)(C)C)cc2F)cc1 (stereo not drawn) [Example 42, N-(2-((2,5-difluoro-4-(trimethylsilyl)phenyl)amino)-1-(4-methoxyphenyl)-2-oxoethyl)-5-oxopyrrolidine-3-carboxamide] | 99.1 | 88.5 | 102
COCc1ccc(C(C(=O)Nc2cc(F)c([Si](C)(C)C)cc2F)N(C)C(=O)c2cc(O)no2)cc1 (stereo not drawn) [Example 43, N-(2-((2,5-difluoro-4-(trimethylsilyl)phenyl)amino)-1-(4-(methoxymethyl)phenyl)-2-oxoethyl)-3-hydroxy-N-methyl-1,2-oxazole-5-carboxamide] | 100 | 96.1 | 102
COCc1ccc(C(NC(=O)Cc2nnc(C)o2)C(=O)Nc2cc(F)c([Si](C)(C)C)cc2F)cc1 (stereo not drawn) [Example 44, N-(2,5-difluoro-4-(trimethylsilyl)phenyl)-2-(4-(methoxymethyl)phenyl)-2-(((5-methyl-1,3,4-oxadiazol-2-yl)acetyl)amino)acetamide] | 102 | 95.7 | 102
COCc1ccc(C(NC(=O)Cn2cnccc2=O)C(=O)Nc2cc(F)c([Si](C)(C)C)cc2F)cc1 (stereo not drawn) [Example 45, N-(2,5-difluoro-4-(trimethylsilyl)phenyl)-2-(4-(methoxymethyl)phenyl)-2-(((6-oxopyrimidin-1(6H)-yl)acetyl)amino)acetamide] | 101 | 94.1 | 102
COc1ccc(C(NC(=O)Cn2ncc3ccccc32)C(=O)Nc2cc(F)c([Si](C)(C)C)cc2F)cc1 (stereo not drawn) [Example 46, N-(2,5-difluoro-4-(trimethylsilyl)phenyl)-2-((1H-indazol-1-ylacetyl)amino)-2-(4-methoxyphenyl)acetamide] | 101 | 87.2 | 99.5
COCc1ccc(C(NC(=O)Cn2ncc3ccccc32)C(=O)Nc2cc(F)c([Si](C)(C)C)cc2F)cc1 (stereo not drawn) [Example 47, N-(2,5-difluoro-4-(trimethylsilyl)phenyl)-2-((1H-indazol-1-ylacetyl)amino)-2-(4-(methoxymethyl)phenyl)acetamide] | 100 | 92.4 | 100
COc1ccc(C(C(=O)Nc2ccc([Si](C)(C)C)c(Cl)c2)N(C)C(=O)c2cc(O)no2)cc1 (stereo not drawn) [Example 48, N-(2-((3-chloro-4-(trimethylsilyl)phenyl)amino)-1-(4-methoxyphenyl)-2-oxoethyl)-3-hydroxy-N-methyl-1,2-oxazole-5-carboxamide] | 95.7 | 73 | 103
COCc1ccc([C@@H](NC(=O)[C@@H]2CNC(=O)C2)C(=O)Nc2ccc([Si](C)(C)C)c(F)c2)cc1 [Example 49, (3S)—N-((1R)-2-((3-fluoro-4-(trimethylsilyl)phenyl)amino)-1-(4-(methoxymethyl)phenyl)-2-oxoethyl)-5-oxopyrrolidine-3-carboxamide] | 98.4 | 96.9 | 101
COc1ccc([C@@H](NC(=O)[C@@H]2CNC(=O)C2)C(=O)Nc2ccc([Si](C)(C)C)c(F)c2)cc1 [Example 50, (3S)—N-((1R)-2-((3-fluoro-4-(trimethylsilyl)phenyl)amino)-1-(4-methoxyphenyl)-2-oxoethyl)-5-oxopyrrolidine-3-carboxamide] | 98 | 91.5 | 102
COCc1ccc([C@@H](NC(=O)[C@@H]2CNC(=O)C2)C(=O)Nc2cc(F)c([Si](C)(C)C)cc2F)cc1 [Example 51, (3S)—N-((1R)-2-((2,5-difluoro-4-(trimethylsilyl)phenyl)amino)-1-(4-(methoxymethyl)phenyl)-2-oxoethyl)-5-oxopyrrolidine-3-carboxamide] | 98 | 97.3 | 102
COCc1ccc([C@@H](NC(=O)[C@@H]2CNC(=O)C2)C(=O)Nc2cc(F)c([Si](C)(C)C)c(F)c2)cc1 [Example 52, (3S)—N-((1R)-2-((3,5-difluoro-4-(trimethylsilyl)phenyl)amino)-1-(4-(methoxymethyl)phenyl)-2-oxoethyl)-5-oxopyrrolidine-3-carboxamide] | 100 | 98.7 | 102
COCc1ccc([C@@H](NC(=O)Cn2cnccc2=O)C(=O)Nc2ccc([Si](C)(C)C)c(F)c2)cc1 [Example 53, (2R)—N-(3-fluoro-4-(trimethylsilyl)phenyl)-2-(4-(methoxymethyl)phenyl)-2-(((6-oxopyrimidin-1(6H)-yl)acetyl)amino)acetamide] | 98.4 | 97.8 | 102
COCc1ccc([C@@H](NC(=O)[C@H]2CNC(=O)C2)C(=O)Nc2ccc([Si](C)(C)C)c(F)c2)cc1 [Example 54, (3R)—N-((1R)-2-((3-fluoro-4-(trimethylsilyl)phenyl)amino)-1-(4-(methoxymethyl)phenyl)-2-oxoethyl)-5-oxopyrrolidine-3-carboxamide] | 99 | 95.6 | 102
COCc1ccc([C@@H](NC(=O)[C@H]2CNC(=O)C2)C(=O)Nc2cc(F)c([Si](C)(C)C)cc2F)cc1 [Example 55, (3R)—N-((1R)-2-((2,5-difluoro-4-(trimethylsilyl)phenyl)amino)-1-(4-(methoxymethyl)phenyl)-2-oxoethyl)-5-oxopyrrolidine-3-carboxamide] | 98.6 | 95.8 | 102
COCc1ccc([C@@H](NC(=O)Cc2nnc(C)o2)C(=O)Nc2cc(F)c([Si](C)(C)C)cc2F)cc1 [Example 56, (2R)—N-(2,5-difluoro-4-(trimethylsilyl)phenyl)-2-(4-(methoxymethyl)phenyl)-2-(((5-methyl-1,3,4-oxadiazol-2-yl)acetyl)amino)acetamide] | 100 | 97.7 | 102
COCc1ccc([C@@H](NC(=O)Cn2cnccc2=O)C(=O)Nc2cc(F)c([Si](C)(C)C)cc2F)cc1 [Example 57, (2R)—N-(2,5-difluoro-4-(trimethylsilyl)phenyl)-2-(4-(methoxymethyl)phenyl)-2-(((6-oxopyrimidin-1(6H)-yl)acetyl)amino)acetamide] | 98.9 | 97.3 | 103
COCc1ccc([C@@H](NC(=O)Cn2cnccc2=O)C(=O)Nc2cc(F)c([Si](C)(C)C)c(F)c2)cc1 [Example 58, (2R)—N-(3,5-difluoro-4-(trimethylsilyl)phenyl)-2-(4-(methoxymethyl)phenyl)-2-(((6-oxopyrimidin-1(6H)-yl)acetyl)amino)acetamide] | 98.4 | 97.1 | 102
